According to PMC6911004, “Fragment-based screening identifies molecules targeting the substrate-binding ankyrin repeat domains of tankyrase” (Scientific Reports, 2019):
≈ marks a conversion by molar mass, not a printed value. Entries after “also recorded” stand apart in the source; their conditions may differ.

Legend:
TNKS2 ARC4 (488–649) = target: T1, TNKS2 ARC4 (488–649) (Homo sapiens, UniProt Q9H2K2); experiment: Protein-observed 1H-15N HSQC NMR titration (chemical shift perturbation); type: binding; conditions: for 15N NMR / 15N HSQC chemical shift perturbations (CSPs): 15N-labelled TNKS2 ARC4
T1 construct: The cell was filled with TNKS2 ARC4 (488–649); His6-GST (cleaved yes); made in house; host or cells: E. coli BL21-CodonPlus (DE3)-RIL
T1 sequence (Q9H2K2 488-649): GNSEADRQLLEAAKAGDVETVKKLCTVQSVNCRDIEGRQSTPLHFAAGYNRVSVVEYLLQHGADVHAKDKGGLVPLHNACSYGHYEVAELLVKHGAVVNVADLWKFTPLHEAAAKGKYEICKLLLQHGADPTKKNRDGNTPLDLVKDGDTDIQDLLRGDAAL
Description: We next tested validated hits from both the DSF and NMR screens against TNKS2 ARC4 using protein-observed NMR. This included 16 compounds in total: 14 fragments identified by DSF and confirmed to bind TNKS2 ARC5 by both relaxation-edited and waterLOGSY methods and two unique fragments identified by NMR and confirmed to bind TNKS2 ARC4 by both ligand-observed NMR methods. We used the 3BP2 TBM peptide as a positive control. To directly identify fragment binding sites on the ARC, we performed a full backbone and partial side-chain assignment of TNKS2 ARC4, doubly labelled with ^15N and ^13C isotopes. The assignment details have been reported elsewhere. […] The different binding regimes may distinguish primary interaction hotspots that are engaged robustly when a peptide is first recruited (slow exchange) from secondary binding sites in the ARC that become occupied once primary binding hotspots are engaged; these may be more dynamic (fast exchange).
We then titrated compounds against ^15N-labelled TNKS2 ARC4, initially at protein:compound ratios of 1:1 and 1:3. […] We confirmed that the CSPs were not caused by pH changes during the titration by measuring the pH of the peptide and fragment stocks (at 3 mM) in assay buffer. Consistent with TBM-competitive binding of fragments 3 and 5, we identified several peaks that shifted in both fragment and 3BP2 TBM peptide titrations. […] However, the solubility of fragments 3 and 5 in assay buffer limited the maximum concentration achievable, and so complete saturation was not reached. This confounded affinity measurements and more extensive analyses of the fragment binding sites by protein-observed NMR.
^15N-labelled TNKS2 ARC4 (488–649) (300 μM final concentration; 5 μL of 3 mM stock) in NMR buffer (45 μL, 25 mM HEPES-NaOH pH 7.5, 100 mM NaCl, 1 mM TCEP, 10% D2O) was used as the baseline sample. Peptide titration samples (Table 6) were prepared by diluting the 16-mer 3BP2 peptide with NMR buffer (45 μL), then adding TNKS2 ARC4 (300 μM final concentration; 5 μL of 3 mM stock). Separate samples were prepared for each concentration point. Fragment titration samples (Table 7) were prepared by diluting fragments in NMR buffer (25 mM HEPES-NaOH pH 7.5, 100 mM NaCl, 1 mM TCEP, 10% D2O) and backfilling with DMSO to keep a constant DMSO concentration of 5%. ^15N-labelled TNKS2 ARC4 (300 μM final concentration; 5 μL of 3 mM stock) was added. Protein with 5% DMSO alone was used as the baseline. Separate samples were prepared for each concentration point. ^1H-^15N HSQC spectra were acquired over 3 h, with 64 scans and a spectrum width of 16.00 ppm for ^1H and 29.00 ppm for ^15N. The pH of the peptide and fragment stocks (at 3 mM) was confirmed to exclude the possibility that peak shifts were due to changes in pH during the titration.
Peaks that shifted were picked manually in each spectrum. The chemical shifts for each peak were measured and exported into Microsoft Excel, where the change in chemical shift from baseline was calculated for hydrogen and nitrogen shifts. The average Euclidean distance shifted (d) was then calculated using Eq. 2, weighting the different nuclei:2 d=√{1/2[δH2+(α.δN2)]},whereα=0.14
Values of d were plotted against ligand concentration in GraphPad Prism, and fitted with Eq. 3:3 Δδobs=Δδmax{([P]t+[L]t+Kd)−[([P]t+[L]t+Kd)^2−4[P]t[L]t]^1/2/2[P]t
Kd values were calculated for each peak that shifted individually. The mean of all shifting peaks was then calculated to give an apparent Kd value.

TNKS2 ARC4 = target: T2, TNKS2 ARC4 (Homo sapiens, UniProt Q9H2K2); experiment: WaterLOGSY NMR assay; type: binding; conditions: for waterLOGSY: wild-type TNKS2 ARC4 20 μM, negative NOE = binder
T2 construct: The cell was filled with TNKS2 ARC4 (488–649); His6-GST; made in house; host or cells: E. coli
T2 sequence (Q9H2K2 488-649): T1 sequence (Q9H2K2 488-649)
Experimental: We next sought close structural analogues of hit fragments 3 and 5 to gain early insights into structure-activity relationships (SAR) and binding modes of hit fragments. We initially tested the analogues using both relaxation-edited and waterLOGSY NMR assays against TNKS2 ARC4 (Table 1), followed by protein-observed NMR if binding was detected in both ligand-observed NMR experiments.
Fragments were dispensed in duplicate into a 384-well plate (250 nL, 100 mM stock in DMSO). Wells were backfilled with DMSO (2.25 μL). Tankyrase ARC protein (47.5 μL in 25 mM HEPES-NaOH pH7.5, 100 mM NaCl, 2 mM TCEP, 10% D2O; 20 μM final protein concentration in the assay) was added to the samples containing protein; buffer only (47.5 μL) was added to the compound-only samples. Solutions were transferred to 1.7 mm NMR tubes using a Gilson liquid handling system. ^1H NMR spectra were recorded, with the DMSO signal dampened. The bulk water signal at 4.7 ppm was selectively inverted. Data were processed using Bruker Topspin 3.14[66].

[1] = Fragment solubility assay by NMR; type: physicochemical; conditions: NMR buffer (HEPES-NaOH) with 5% DMSO, aqueous with cosolvent or surfactant or cyclodextrin, kinetic from dmso stock; NMR buffer pH 7.5, 5% DMSO, 500 μM nominal
Experimental: Fragments were dispensed into a 384-well plate (250 nL of 100 mM stock in DMSO, 500 μM final concentration) using an ECHO acoustic dispenser. DMSO (2.25 μL) was added, then NMR buffer (47.5 μL, 25 mM HEPES-NaOH pH 7.5, 100 mM NaCl, 1 mM TCEP, 10% D2O). The plate was centrifuged (1 min, 1000 × g) before the solutions were transferred to 1.7 mm NMR tubes using a Gilson liquid handling system. ^1H NMR spectra were recorded with the DMSO and water signals dampened. 100 μM caffeine was used as an external standard to quantify the ligand signals.

[2] = TNKS2 ARC4 300 μM, fragment up to 4800 μM, 5% DMSO

| Compound | 15N NMR / 15N HSQC chemical shift perturbations (CSPs) (TNKS2 ARC4 (488–649)) | NMR Kd (apparent, mean of shifting peaks) (TNKS2 ARC4 (488–649); [2]) | waterLOGSY (TNKS2 ARC4) | solubility [1] [µM] | waterLOGSY: competition with 3BP2 TBM peptide (TNKS2 ARC4) | Kd (TNKS2 ARC4 (488–649); TNKS2 ARC4 300 μM, fragment up to 4800 μM, 5% DMSO, read-out: NMR Kd (apparent, mean of shifting peaks)) [mM] | waterLOGSY, compound alone (TNKS2 ARC4; no protein added) |
| --- | --- | --- | --- | --- | --- | --- | --- |
| O=C(NCc1ccco1)c1ccc(F)cc1 [compound 3] | significant CSPs; also recorded: substantial CSPs; also recorded: CSPs observed | no saturation | negative NOE; also recorded: binding | 220 (≈ 48.2 µg/mL) |  |  |  |
| O=C(NCc1ccc(F)cc1)c1ccc2nccnc2c1 [compound 5] | significant CSPs; also recorded: substantial CSPs; also recorded: CSPs observed | no saturation | negative NOE; also recorded: binding | 410 (≈ 115 µg/mL) | peptide competition |  |  |
| O=C(NCc1ccco1)c1ccc2nccnc2c1 [compound 9] | substantial CSPs; also recorded: significant CSPs |  | one peak has negative NOE; also recorded: binding; also recorded: negative NOE signal | 650 (≈ 165 µg/mL) |  | 1.05 | no NOE |
| LPHLQRSPPDGQSFRSW [3BP2 16-mer peptide, 16-mer TBM peptide derived from 3BP2, W added for A280, N-terminus acetylated, C-terminus amide-capped; positive control, reference compound] | significant chemical shift perturbations |  |  |  |  |  |  |
